We go through three compounds from ChEMBL document CHEMBL5715954, “Silencing c-Myc translation as a therapeutic strategy through targeting PI3Kδ and CK1ε in hematological malignancies” (Blood, 2017).

Holding throughout (design): scale not given: the % may be the effect or the level left
In assay [1] the target is CDK2/Cyclin A1 (Homo sapiens) (UniProt P24941+P78396). Briefly: Inhibition of human CDK2/Cyclin A1 assessed as enzyme activity at 1 uM using RB Protein as substrate preincubated for 20 mins followed by [gamma-33P]-ATP addition and measured after 120 mins by radiometric Hot-SpotSM Kinase assay relative to control. The class given is protein-complex assay.
Assay [2] addresses T1, Non-receptor tyrosine-protein kinase TNK1 (Homo sapiens) (UniProt Q13470).
T1 sequence (whole entry): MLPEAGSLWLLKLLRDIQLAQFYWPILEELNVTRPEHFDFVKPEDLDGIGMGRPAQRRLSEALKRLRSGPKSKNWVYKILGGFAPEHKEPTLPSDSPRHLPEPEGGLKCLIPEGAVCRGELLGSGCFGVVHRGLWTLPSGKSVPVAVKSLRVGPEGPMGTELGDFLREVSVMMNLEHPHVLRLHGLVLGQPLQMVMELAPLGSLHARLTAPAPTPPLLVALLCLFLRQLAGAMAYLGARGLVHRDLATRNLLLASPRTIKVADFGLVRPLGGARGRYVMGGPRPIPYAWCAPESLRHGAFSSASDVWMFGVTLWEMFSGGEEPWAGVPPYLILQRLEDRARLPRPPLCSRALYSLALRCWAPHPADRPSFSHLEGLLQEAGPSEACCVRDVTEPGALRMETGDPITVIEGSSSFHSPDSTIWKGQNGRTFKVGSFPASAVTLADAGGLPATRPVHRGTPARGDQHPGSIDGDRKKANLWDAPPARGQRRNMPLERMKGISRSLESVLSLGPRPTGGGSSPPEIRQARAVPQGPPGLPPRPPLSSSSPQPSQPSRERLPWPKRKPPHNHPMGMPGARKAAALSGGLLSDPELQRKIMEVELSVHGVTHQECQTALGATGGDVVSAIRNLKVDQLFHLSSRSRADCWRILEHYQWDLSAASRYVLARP
Briefly: Inhibition of human TNK1 assessed as enzyme activity at 1 uM using poly[Glu:Tyr] (4:1) as substrate preincubated for 20 mins followed by [gamma-33P]-ATP addition and measured after 120 mins by radiometric Hot-SpotSM Kinase assay relative to control.

In assay [3] the target is Serine/threonine-protein kinase 32B (Homo sapiens) (UniProt Q9NY57). Put plainly: Inhibition of human STK32B assessed as enzyme activity at 1 uM using myelin basic protein as substrate preincubated for 20 mins followed by [gamma-33P]-ATP addition and measured after 120 mins by radiometric Hot-SpotSM Kinase assay relative to control.
In assay [4] the target is T2, Rhodopsin kinase GRK7 (Homo sapiens) (UniProt Q8WTQ7).
T2 sequence (whole entry): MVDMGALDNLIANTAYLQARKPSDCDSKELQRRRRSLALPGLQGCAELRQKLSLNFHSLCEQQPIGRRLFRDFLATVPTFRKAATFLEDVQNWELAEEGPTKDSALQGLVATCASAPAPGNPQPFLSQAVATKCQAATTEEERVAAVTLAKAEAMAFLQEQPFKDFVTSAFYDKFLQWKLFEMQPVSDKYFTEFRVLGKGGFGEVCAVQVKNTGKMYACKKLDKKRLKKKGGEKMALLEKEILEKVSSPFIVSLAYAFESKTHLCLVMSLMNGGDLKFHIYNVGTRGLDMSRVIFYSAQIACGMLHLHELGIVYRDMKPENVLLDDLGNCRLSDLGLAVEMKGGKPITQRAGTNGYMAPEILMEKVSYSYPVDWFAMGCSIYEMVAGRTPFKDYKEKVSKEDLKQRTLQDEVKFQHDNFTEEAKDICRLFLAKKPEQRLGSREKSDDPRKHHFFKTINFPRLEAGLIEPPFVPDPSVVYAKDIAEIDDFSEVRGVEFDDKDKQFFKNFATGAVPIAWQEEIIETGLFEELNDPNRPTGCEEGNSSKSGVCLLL
Put plainly: Inhibition of human GRK7 assessed as enzyme activity at 1 uM using casein as substrate preincubated for 20 mins followed by [gamma-33P]-ATP addition and measured after 120 mins by radiometric Hot-SpotSM Kinase assay relative to control.

The target in assay [5] is T3, Kinase suppressor of Ras 2 (Homo sapiens) (UniProt Q6VAB6).
T3 sequence (whole entry): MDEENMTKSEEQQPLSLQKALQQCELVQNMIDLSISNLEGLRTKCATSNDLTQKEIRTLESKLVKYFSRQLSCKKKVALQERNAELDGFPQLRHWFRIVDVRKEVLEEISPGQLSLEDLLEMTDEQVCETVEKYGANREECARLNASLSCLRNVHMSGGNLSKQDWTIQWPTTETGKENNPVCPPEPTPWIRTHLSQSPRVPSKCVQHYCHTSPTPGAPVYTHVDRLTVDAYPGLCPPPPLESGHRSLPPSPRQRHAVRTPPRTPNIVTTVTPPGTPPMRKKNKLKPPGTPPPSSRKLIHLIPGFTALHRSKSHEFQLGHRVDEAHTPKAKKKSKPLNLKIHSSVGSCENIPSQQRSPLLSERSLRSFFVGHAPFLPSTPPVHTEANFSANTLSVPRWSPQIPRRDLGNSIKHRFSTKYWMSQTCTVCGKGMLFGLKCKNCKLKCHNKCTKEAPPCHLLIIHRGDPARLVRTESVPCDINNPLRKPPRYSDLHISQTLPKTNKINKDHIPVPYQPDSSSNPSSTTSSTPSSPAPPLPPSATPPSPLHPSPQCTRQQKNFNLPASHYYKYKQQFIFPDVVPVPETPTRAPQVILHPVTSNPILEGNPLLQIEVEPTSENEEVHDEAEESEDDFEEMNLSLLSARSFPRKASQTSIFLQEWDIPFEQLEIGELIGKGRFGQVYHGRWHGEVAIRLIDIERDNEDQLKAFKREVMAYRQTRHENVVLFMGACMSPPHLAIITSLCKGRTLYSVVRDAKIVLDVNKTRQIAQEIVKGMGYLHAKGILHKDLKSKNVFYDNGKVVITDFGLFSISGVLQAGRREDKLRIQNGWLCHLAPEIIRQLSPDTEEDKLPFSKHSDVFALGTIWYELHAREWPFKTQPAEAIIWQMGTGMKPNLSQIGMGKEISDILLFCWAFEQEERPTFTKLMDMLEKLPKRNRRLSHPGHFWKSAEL
Put plainly: Inhibition of human KSR2 assessed as enzyme activity at 1 uM using KRREILSRRPSYR as substrate preincubated for 20 mins followed by [gamma-33P]-ATP addition and measured after 120 mins by radiometric Hot-SpotSM Kinase assay relative to control.

Assay [6] addresses Fibroblast growth factor receptor 3 (Homo sapiens) (UniProt P22607). Put plainly: Inhibition of human FGFR3 assessed as enzyme activity at 1 uM using poly[Glu:Tyr] (4:1) as substrate preincubated for 20 mins followed by [gamma-33P]-ATP addition and measured after 120 mins by radiometric Hot-SpotSM Kinase assay relative to control.

Sequence of Serine/threonine-protein kinase 32B (Homo sapiens) (Q9NY57 whole entry): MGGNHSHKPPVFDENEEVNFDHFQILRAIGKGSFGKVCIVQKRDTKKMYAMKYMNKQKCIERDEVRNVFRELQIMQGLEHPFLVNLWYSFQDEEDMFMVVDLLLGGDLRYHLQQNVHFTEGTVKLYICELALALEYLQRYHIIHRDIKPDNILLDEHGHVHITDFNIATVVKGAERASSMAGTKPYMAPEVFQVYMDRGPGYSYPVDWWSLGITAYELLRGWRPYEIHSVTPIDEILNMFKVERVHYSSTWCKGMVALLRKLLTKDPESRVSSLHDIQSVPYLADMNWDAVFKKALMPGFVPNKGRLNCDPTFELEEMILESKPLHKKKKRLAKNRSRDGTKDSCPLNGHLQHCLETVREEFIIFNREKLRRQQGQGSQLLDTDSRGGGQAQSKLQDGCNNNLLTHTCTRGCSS
Sequence of Fibroblast growth factor receptor 3 (Homo sapiens) (P22607 23-806 limits assumed): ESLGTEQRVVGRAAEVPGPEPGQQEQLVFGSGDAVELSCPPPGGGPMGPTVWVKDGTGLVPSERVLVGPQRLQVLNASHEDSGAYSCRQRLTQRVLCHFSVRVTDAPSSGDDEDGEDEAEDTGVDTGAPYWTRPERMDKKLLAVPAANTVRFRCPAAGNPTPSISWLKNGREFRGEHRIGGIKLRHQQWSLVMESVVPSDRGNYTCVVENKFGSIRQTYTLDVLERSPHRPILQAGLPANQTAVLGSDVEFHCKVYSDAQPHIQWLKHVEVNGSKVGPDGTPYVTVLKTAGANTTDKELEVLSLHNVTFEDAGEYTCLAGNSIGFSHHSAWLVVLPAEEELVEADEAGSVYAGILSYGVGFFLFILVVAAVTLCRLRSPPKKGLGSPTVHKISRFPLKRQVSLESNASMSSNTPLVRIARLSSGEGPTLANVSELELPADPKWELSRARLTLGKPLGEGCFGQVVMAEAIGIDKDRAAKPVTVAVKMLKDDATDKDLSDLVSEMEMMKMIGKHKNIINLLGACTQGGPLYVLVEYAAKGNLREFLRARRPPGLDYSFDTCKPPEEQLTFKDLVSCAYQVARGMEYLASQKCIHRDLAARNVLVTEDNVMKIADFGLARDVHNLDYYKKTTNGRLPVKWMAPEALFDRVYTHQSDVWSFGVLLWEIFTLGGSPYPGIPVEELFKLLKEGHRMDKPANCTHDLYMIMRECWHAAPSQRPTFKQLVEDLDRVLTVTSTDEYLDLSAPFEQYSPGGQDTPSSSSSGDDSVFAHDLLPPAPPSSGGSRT

Take `C[C@H](Nc1ncnc2nc[nH]c12)c1cc2cccc(Cl)c2c(=O)n1-c1ccccc1`: the Activity in assay [1] was 79.7%; in assay [2], 87.5%; in assay [3], 116%; in assay [4] it was 101%; in assay [5], 91.4%; in assay [6], 93.2%.
With `CC[C@H](Nc1ncnc2[nH]cnc12)c1nc2cccc(F)c2c(=O)n1-c1ccccc1`, the Activity amounted to 86.7% in assay [1]; 86.3% in assay [2]; 120% in assay [3]; 95% in assay [4]; 95% in assay [5]; 88.8% in assay [6].
Regarding `CC(C)Oc1ccc(-c2nn([C@@H](C)c3oc4ccc(F)cc4c(=O)c3-c3cccc(F)c3)c3ncnc(N)c23)cc1F` [UMBRALISIB], the Activity in assay [1] was 78%; in assay [2], 88.9%; in assay [3], 114%; in assay [4], 100%; in assay [5], 96.2%; in assay [6], 94.3%.
